From PubChem BioAssay AID1963958 (Molecular Pharmacology Branch, DTP, NCI, 2024)
pIC50: −log10 of the molar value.

Test system: MDA-MB-231 multicell spheroids, viability
Test: Anticancer human tumor MDA-MB-231 cell line growth inhibition [PI3K];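 note: spheroids exposed to agents for seven days before reading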;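 for viability, T/C: percent of vehicle control luminescence with DMSO treated spheroids as 100%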
Conditions: for pIC50: curve of first compound; for viability, T/C: stronger effect = lower value
Summary of the method: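 Tumor cells grown as multi-cell spheroids with HUVEC endothelial cells and MSC fibroblast-like stroma were treated with targeted agents combined with inavolisib, alpelisib, duvelisib or copanlisib. Doses fell in half-log steps from near clinical Cmax, else from 10 microM. Viability was measured.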

SMILES: CNC(=O)c1ccc(N2C(=S)N(c3ccc(C#N)c(C(F)(F)F)c3)C(=O)C2(C)C)cc1F + COc1c(OCCCN2CCOCC2)ccc2c3n(c(=NC(=O)c4cnc(N)nc4)nc12)CCN3
- pIC50 (second compound 0.00316 µM): < 5.00
- pIC50 (second compound 0.01 µM): < 5.00
- pIC50 (second compound 0.0316 µM): < 5.00
- pIC50 (second compound 0.1 µM): > 7.50
- pIC50 (second compound 0.316 µM): > 7.50
- pIC50 (second compound 1 µM): > 7.50
- viability, T/C (second compound 0.00316 µM, first compound 0.0316 µM): 98.3%
- viability, T/C (second compound 0.00316 µM, first compound 0.1 µM): 96.5%
- viability, T/C (second compound 0.00316 µM, first compound 0.316 µM): 98.9%
- viability, T/C (second compound 0.00316 µM, first compound 1 µM): 97.6%
- viability, T/C (second compound 0.00316 µM, first compound 3.16 µM): 95.9%
- viability, T/C (second compound 0.00316 µM, first compound 10 µM): 81.3%
- viability, T/C (second compound 0.01 µM, first compound 0.0316 µM): 82.2%
- viability, T/C (second compound 0.01 µM, first compound 0.1 µM): 78.5%
- viability, T/C (second compound 0.01 µM, first compound 0.316 µM): 82.5%
- viability, T/C (second compound 0.01 µM, first compound 1 µM): 83.7%
- viability, T/C (second compound 0.01 µM, first compound 3.16 µM): 72.7%
- viability, T/C (second compound 0.01 µM, first compound 10 µM): 64.2%
- viability, T/C (second compound 0.0316 µM, first compound 0.0316 µM): 63%
- viability, T/C (second compound 0.0316 µM, first compound 0.1 µM): 64.5%
- viability, T/C (second compound 0.0316 µM, first compound 0.316 µM): 64.8%
- viability, T/C (second compound 0.0316 µM, first compound 1 µM): 61.7%
- viability, T/C (second compound 0.0316 µM, first compound 3.16 µM): 59%
- viability, T/C (second compound 0.0316 µM, first compound 10 µM): 50.9%
- viability, T/C (second compound 0.1 µM, first compound 0.0316 µM): 50.9%
- viability, T/C (second compound 0.1 µM, first compound 0.1 µM): 46.2%
- viability, T/C (second compound 0.1 µM, first compound 0.316 µM): 48.9%
- viability, T/C (second compound 0.1 µM, first compound 1 µM): 48.1%
- viability, T/C (second compound 0.1 µM, first compound 3.16 µM): 46.9%
- viability, T/C (second compound 0.1 µM, first compound 10 µM): 38.8%
- viability, T/C (second compound 0.316 µM, first compound 0.0316 µM): 34.5%
- viability, T/C (second compound 0.316 µM, first compound 0.1 µM): 34.4%
- viability, T/C (second compound 0.316 µM, first compound 0.316 µM): 34.8%
- viability, T/C (second compound 0.316 µM, first compound 1 µM): 34.6%
- viability, T/C (second compound 0.316 µM, first compound 3.16 µM): 32.6%
- viability, T/C (second compound 0.316 µM, first compound 10 µM): 28.3%
- viability, T/C (second compound 1 µM, first compound 0.0316 µM): 25.6%
- viability, T/C (second compound 1 µM, first compound 0.1 µM): 24.8%
- viability, T/C (second compound 1 µM, first compound 0.316 µM): 25%
- viability, T/C (second compound 1 µM, first compound 1 µM): 24.8%
- viability, T/C (second compound 1 µM, first compound 3.16 µM): 25.1%
- viability, T/C (second compound 1 µM, first compound 10 µM): 22.9%

SMILES: Cn1cnc2c(F)c(Nc3ccc(Br)cc3Cl)c(C(=O)NOCCO)cc21 + COc1c(OCCCN2CCOCC2)ccc2c3n(c(=NC(=O)c4cnc(N)nc4)nc12)CCN3
- pIC50 (second compound 0.00316 µM): 6.74
- pIC50 (second compound 0.01 µM): 7.39
- pIC50 (second compound 0.0316 µM): > 8.02
- pIC50 (second compound 0.1 µM): > 8.02
- pIC50 (second compound 0.316 µM): > 8.02
- pIC50 (second compound 1 µM): > 8.02
- viability, T/C (second compound 0.00316 µM, first compound 0.00949 µM): 60%
- viability, T/C (second compound 0.00316 µM, first compound 0.03 µM): 56.6%
- viability, T/C (second compound 0.00316 µM, first compound 0.0949 µM): 52.2%
- viability, T/C (second compound 0.00316 µM, first compound 0.3 µM): 47.5%
- viability, T/C (second compound 0.00316 µM, first compound 0.949 µM): 41.4%
- viability, T/C (second compound 0.00316 µM, first compound 3 µM): 29.7%
- viability, T/C (second compound 0.01 µM, first compound 0.00949 µM): 62.1%
- viability, T/C (second compound 0.01 µM, first compound 0.03 µM): 46.6%
- viability, T/C (second compound 0.01 µM, first compound 0.0949 µM): 42.2%
- viability, T/C (second compound 0.01 µM, first compound 0.3 µM): 40.4%
- viability, T/C (second compound 0.01 µM, first compound 0.949 µM): 41.7%
- viability, T/C (second compound 0.01 µM, first compound 3 µM): 23.6%
- viability, T/C (second compound 0.0316 µM, first compound 0.00949 µM): 45%
- viability, T/C (second compound 0.0316 µM, first compound 0.03 µM): 43.4%
- viability, T/C (second compound 0.0316 µM, first compound 0.0949 µM): 38.9%
- viability, T/C (second compound 0.0316 µM, first compound 0.3 µM): 33.1%
- viability, T/C (second compound 0.0316 µM, first compound 0.949 µM): 28.8%
- viability, T/C (second compound 0.0316 µM, first compound 3 µM): 12.9%
- viability, T/C (second compound 0.1 µM, first compound 0.00949 µM): 33.7%
- viability, T/C (second compound 0.1 µM, first compound 0.03 µM): 30.3%
- viability, T/C (second compound 0.1 µM, first compound 0.0949 µM): 27.3%
- viability, T/C (second compound 0.1 µM, first compound 0.3 µM): 27.1%
- viability, T/C (second compound 0.1 µM, first compound 0.949 µM): 21%
- viability, T/C (second compound 0.1 µM, first compound 3 µM): 7.54%
- viability, T/C (second compound 0.316 µM, first compound 0.00949 µM): 24.3%
- viability, T/C (second compound 0.316 µM, first compound 0.03 µM): 18.7%
- viability, T/C (second compound 0.316 µM, first compound 0.0949 µM): 15.8%
- viability, T/C (second compound 0.316 µM, first compound 0.3 µM): 14.4%
- viability, T/C (second compound 0.316 µM, first compound 0.949 µM): 12.2%
- viability, T/C (second compound 0.316 µM, first compound 3 µM): 5.36%
- viability, T/C (second compound 1 µM, first compound 0.00949 µM): 17.7%
- viability, T/C (second compound 1 µM, first compound 0.03 µM): 14.2%
- viability, T/C (second compound 1 µM, first compound 0.0949 µM): 12.5%
- viability, T/C (second compound 1 µM, first compound 0.3 µM): 9.99%
- viability, T/C (second compound 1 µM, first compound 0.949 µM): 8.63%
- viability, T/C (second compound 1 µM, first compound 3 µM): 4.84%
